From PubChem BioAssay (NCI)
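Assay format: 96-well plates, 48-hour exposure. The concentration for 50% growth inhibition is given as GI50. TGI: concentration producing complete growth inhibition.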

Key:
Assay in all cases: inhibition of tumour cell growth, NCI panel, 48 h
MDA-N = tested on: MDA-N
HCT-116 colon = tested on: HCT-116 colon
HT29 colon = tested on: HT29 colon
OVCAR-4 ovarian = tested on: OVCAR-4 ovarian
RPMI-8226 leukemia = tested on: RPMI-8226 leukemia
HOP-62 NSCLC = tested on: HOP-62 NSCLC
A498 renal = tested on: A498 renal
DMS 114 small cell lung = tested on: DMS 114 small cell lung
SNB-78 CNS = tested on: SNB-78 CNS
KM20L2 colon = tested on: KM20L2 colon
DMS 273 small cell lung = tested on: DMS 273 small cell lung
DLD-1 colon = tested on: DLD-1 colon
BT-549 breast = tested on: BT-549 breast
M19-MEL melanoma = tested on: M19-MEL melanoma

## Cc1cn(C2C=CC(COP(=O)(OCc3ccc([N+](=O)[O-])o3)N(C)CCCCCl)O2)c(=O)[nH]c1=O (stereo not given)
MDA-N
  TGI: 11.8 µM
HCT-116 colon
  TGI: 20.8 µM
HT29 colon
  TGI: 27 µM
OVCAR-4 ovarian
  TGI: 17.2 µM
RPMI-8226 leukemia
  TGI: 14.1 µM
HOP-62 NSCLC
  TGI: 30.9 µM

## CCCCN(CCCC)CCC(O)c1cc(-c2ccc(C(F)(F)F)cc2)nc(-c2ccc(C(F)(F)F)cc2)c1 (stereo not given)
MDA-N
  TGI: > 100 µM
HCT-116 colon
  TGI: > 100 µM
HT29 colon
  TGI: > 100 µM
OVCAR-4 ovarian
  TGI: > 100 µM
RPMI-8226 leukemia
  TGI: > 100 µM
HOP-62 NSCLC
  TGI: > 100 µM
A498 renal
  TGI: > 100 µM

## NC1C=NNC1=O (stereo not given)
DMS 114 small cell lung
  TGI: > 100 µM
SNB-78 CNS
  TGI: > 100 µM
KM20L2 colon
  TGI: > 100 µM
DMS 273 small cell lung
  TGI: > 100 µM
HT29 colon
  TGI: > 100 µM
OVCAR-4 ovarian
  TGI: > 100 µM
RPMI-8226 leukemia
  TGI: > 100 µM
DLD-1 colon
  TGI: > 100 µM

## CC(C)=Cc1cc(C)c2c3c(c(O)c(O)c(C)c13)C(C)=CC2=O
MDA-N
  TGI: > 100 µM
HCT-116 colon
  TGI: 37.7 µM
HT29 colon
  TGI: 32.1 µM
RPMI-8226 leukemia
  TGI: 15 µM
HOP-62 NSCLC
  TGI: 47.2 µM
A498 renal
  TGI: 47.5 µM

## COc1cc2c(cc1OC)C1c3ccccc3CCN1CCC2 (stereo not given)
BT-549 breast
  TGI: 81.4 µM
MDA-N
  TGI: > 100 µM
HCT-116 colon
  TGI: > 100 µM
HT29 colon
  TGI: > 100 µM
RPMI-8226 leukemia
  TGI: > 100 µM
HOP-62 NSCLC
  TGI: > 100 µM

## CC1C2CCC3C(O)C2(CC(O)C2(O)C1CC(O)C2(C)C)CC3(C)O (stereo not given)
BT-549 breast
  TGI: > 100 µM
MDA-N
  TGI: > 100 µM
HCT-116 colon
  TGI: > 100 µM
HT29 colon
  TGI: > 100 µM
OVCAR-4 ovarian
  TGI: > 100 µM
A498 renal
  TGI: > 100 µM

## COc1ccc(C(=O)NC2=C(Cl)C(=O)c3ccccc3C2=O)cc1
BT-549 breast
  TGI: 9.64 µM
MDA-N
  TGI: 10.7 µM
HCT-116 colon
  TGI: 1.52 µM
HT29 colon
  TGI: 19.4 µM
OVCAR-4 ovarian
  TGI: 7.72 µM
HOP-62 NSCLC
  TGI: 60.8 µM
A498 renal
  TGI: 27.7 µM

## OC(c1ccc(Cl)cc1)(c1ccc(Cl)cc1)c1cncnc1
BT-549 breast
  TGI: 42 µM
MDA-N
  TGI: 37.7 µM
HCT-116 colon
  TGI: 28.6 µM
HT29 colon
  TGI: 32.1 µM
OVCAR-4 ovarian
  TGI: 41.5 µM
RPMI-8226 leukemia
  TGI: 85.3 µM
HOP-62 NSCLC
  TGI: 35.3 µM
A498 renal
  TGI: 47.6 µM

## O=C(Nn1c(-c2cccs2)nc2ccc(I)cc2c1=O)c1ccccc1
BT-549 breast
  TGI: 51.9 µM
MDA-N
  TGI: > 100 µM
HCT-116 colon
  TGI: > 100 µM
HT29 colon
  TGI: 90.6 µM
OVCAR-4 ovarian
  TGI: 80.6 µM
RPMI-8226 leukemia
  GI50: 22.8 µM
  TGI: 58.1 µM
HOP-62 NSCLC
  TGI: > 100 µM

## Nc1c(OCC(=O)O)ccc2cc(S(=O)(=O)O)ccc12
BT-549 breast
  TGI: > 100 µM
MDA-N
  TGI: > 100 µM
HCT-116 colon
  TGI: > 100 µM
OVCAR-4 ovarian
  TGI: > 100 µM
RPMI-8226 leukemia
  TGI: > 100 µM
HOP-62 NSCLC
  TGI: > 100 µM
A498 renal
  TGI: > 100 µM

## O=NN1C(c2ccccc2)C2CCCC(C2=O)C1c1ccccc1 (stereo not given)
DMS 114 small cell lung
  TGI: > 93.8 µM
SNB-78 CNS
  TGI: > 100 µM
M19-MEL melanoma
  TGI: 37.1 µM
KM20L2 colon
  TGI: 25.9 µM
HCT-116 colon
  TGI: > 63.1 µM
DMS 273 small cell lung
  TGI: 55.2 µM
HT29 colon
  TGI: 40.1 µM
OVCAR-4 ovarian
  TGI: 66.3 µM
RPMI-8226 leukemia
  TGI: 48.4 µM
HOP-62 NSCLC
  TGI: 56 µM
DLD-1 colon
  TGI: > 100 µM
A498 renal
  TGI: > 94.1 µM

## c1ccc2c(c1)OCCc1cn[nH]c1-2
DMS 114 small cell lung
  TGI: > 100 µM
SNB-78 CNS
  TGI: > 100 µM
KM20L2 colon
  TGI: > 100 µM
HCT-116 colon
  TGI: > 100 µM
DMS 273 small cell lung
  TGI: > 100 µM
HT29 colon
  TGI: > 100 µM
OVCAR-4 ovarian
  TGI: > 100 µM
HOP-62 NSCLC
  TGI: > 100 µM
DLD-1 colon
  TGI: > 100 µM
A498 renal
  TGI: > 100 µM

## CN(CCO)Cc1ncccc1O
BT-549 breast
  TGI: > 100 µM
HT29 colon
  TGI: > 100 µM
OVCAR-4 ovarian
  TGI: > 100 µM
RPMI-8226 leukemia
  TGI: > 100 µM
HOP-62 NSCLC
  TGI: > 100 µM
A498 renal
  TGI: > 100 µM

## O=C1CCCC/C1=C1/SC(=Nc2ccccc2)C(=Nc2ccccc2)N1c1ccccc1
BT-549 breast
  TGI: > 100 µM
MDA-N
  TGI: > 100 µM
HCT-116 colon
  TGI: > 100 µM
HT29 colon
  TGI: > 100 µM
RPMI-8226 leukemia
  TGI: > 100 µM
HOP-62 NSCLC
  TGI: > 100 µM
A498 renal
  TGI: > 100 µM

## CCc1c2cc(OC)c(OC)cc2cc2c3cc(OC)c(OC)cc3cc[n+]12 (tested in a mixture with another compound)
BT-549 breast
  TGI: 17.4 µM
DMS 114 small cell lung
  TGI: 63.1 µM
SNB-78 CNS
  TGI: > 100 µM
MDA-N
  TGI: > 36.5 µM
M19-MEL melanoma
  TGI: > 92.7 µM
KM20L2 colon
  TGI: > 100 µM
HCT-116 colon
  TGI: > 53.8 µM
DMS 273 small cell lung
  TGI: > 100 µM
HT29 colon
  TGI: > 66.4 µM
OVCAR-4 ovarian
  TGI: > 85.6 µM
RPMI-8226 leukemia
  TGI: > 47.3 µM
HOP-62 NSCLC
  TGI: > 95.4 µM
DLD-1 colon
  TGI: > 100 µM
A498 renal
  TGI: > 71.8 µM

## O=C(O)C1OC1C(=O)O (stereo not given)
BT-549 breast
  TGI: > 100 µM
MDA-N
  TGI: > 100 µM
HCT-116 colon
  TGI: > 100 µM
HT29 colon
  TGI: > 100 µM
OVCAR-4 ovarian
  TGI: > 100 µM
RPMI-8226 leukemia
  TGI: > 100 µM
HOP-62 NSCLC
  TGI: > 100 µM
A498 renal
  TGI: > 100 µM

## CN1CC(c2ccccc2)C(O)(C2(c3ccccc3)CN(C)CC(c3ccccc3)C2=O)C(c2ccccc2)C1 (stereo not given)
BT-549 breast
  TGI: > 100 µM
MDA-N
  TGI: > 100 µM
HCT-116 colon
  TGI: > 100 µM
HT29 colon
  TGI: > 100 µM
OVCAR-4 ovarian
  TGI: > 100 µM
RPMI-8226 leukemia
  TGI: > 100 µM
HOP-62 NSCLC
  TGI: > 100 µM
A498 renal
  TGI: > 100 µM

## CC[C@@]1(OC(=O)CN(C)C)C(=O)OCc2c1cc1n(c2=O)Cc2cc3c(N)cccc3nc2-1
BT-549 breast
  GI50: 0.0634 µM
  TGI: > 100 µM
HT29 colon
  GI50: 0.118 µM
  TGI: > 100 µM
OVCAR-4 ovarian
  GI50: 0.625 µM
  TGI: 14.6 µM
RPMI-8226 leukemia
  GI50: 0.0636 µM
  TGI: 0.541 µM
HOP-62 NSCLC
  GI50: 0.0119 µM
  TGI: 0.432 µM
A498 renal
  GI50: 0.0208 µM
  TGI: 0.0987 µM

## C[C@]12Cc3cnc(-c4ccccc4)nc3C[C@@H]1CC[C@@H]1[C@@H]2CC[C@@]2(C)[C@H]1CC[C@]2(C)O
BT-549 breast
  TGI: 54.6 µM
MDA-N
  TGI: 48.9 µM
HCT-116 colon
  TGI: 48.8 µM
HT29 colon
  TGI: 23.7 µM
OVCAR-4 ovarian
  TGI: 66.7 µM
RPMI-8226 leukemia
  TGI: 55 µM
HOP-62 NSCLC
  TGI: 41.6 µM
A498 renal
  TGI: 43.2 µM

## CCC1C(C#N)=C(O)NC(O)=C1C#N
DMS 114 small cell lung
  TGI: > 100 µM
SNB-78 CNS
  TGI: > 100 µM
M19-MEL melanoma
  TGI: > 100 µM
KM20L2 colon
  TGI: > 100 µM
HCT-116 colon
  TGI: > 100 µM
DMS 273 small cell lung
  TGI: > 100 µM
HT29 colon
  TGI: > 100 µM
OVCAR-4 ovarian
  TGI: > 100 µM
RPMI-8226 leukemia
  TGI: > 100 µM
HOP-62 NSCLC
  TGI: > 100 µM
DLD-1 colon
  TGI: > 100 µM
A498 renal
  TGI: > 100 µM

## O=C(O)C(O)(c1ccc(-c2ccccc2)cc1)c1ccc(-c2ccccc2)cc1
BT-549 breast
  TGI: 42.7 µM
MDA-N
  TGI: 34.5 µM
HCT-116 colon
  TGI: 62.2 µM
HT29 colon
  TGI: > 100 µM
OVCAR-4 ovarian
  TGI: > 100 µM
RPMI-8226 leukemia
  TGI: > 100 µM
HOP-62 NSCLC
  TGI: 46.3 µM
A498 renal
  TGI: 43.5 µM

## Clc1cc2ccccc2c2ccccc12
BT-549 breast
  TGI: 96.7 µM
HCT-116 colon
  TGI: > 100 µM
HT29 colon
  TGI: > 100 µM
OVCAR-4 ovarian
  TGI: > 100 µM
RPMI-8226 leukemia
  TGI: > 100 µM
HOP-62 NSCLC
  TGI: > 100 µM
A498 renal
  TGI: > 100 µM

## COc1ccc(NC(=S)NNC(=O)c2nsc3ccccc23)cc1
DMS 114 small cell lung
  TGI: > 100 µM
SNB-78 CNS
  TGI: > 100 µM
M19-MEL melanoma
  TGI: > 100 µM
KM20L2 colon
  TGI: > 100 µM
HCT-116 colon
  TGI: > 100 µM
DMS 273 small cell lung
  TGI: 81.5 µM
HT29 colon
  TGI: > 100 µM
OVCAR-4 ovarian
  TGI: > 100 µM
RPMI-8226 leukemia
  TGI: > 100 µM
HOP-62 NSCLC
  TGI: > 100 µM

## Clc1ccc(C2CC(c3cccc(Nc4ccncc4)c3)=NN2c2ccc(Cl)cc2)cc1 (stereo not given)
OVCAR-4 ovarian
  GI50: 1.66 µM
  TGI: 3.08 µM
A498 renal
  GI50: 1.56 µM
  TGI: 2.94 µM
